Results as given in PMC2925389, “Pre-Steady-State Kinetic Analysis of Truncated and Full-Length Saccharomyces cerevisiae DNA Polymerase Eta” (Journal of Nucleic Acids, 2010).

How the values were obtained:
truncated yPolη = molecular target: T1, truncated yPolη (Saccharomyces cerevisiae, UniProt Q04049); test: pre-steady-state single-turnover nucleotide incorporation, rapid chemical quench; format: biochemical; details: 5 mM MgCl2, pH 7.5, 23°C
T1 construct: gene RAD30; catalytic core (polymerase domain) 1-513, lacks C-terminal residues 514-632; N-terminal tag MGSSH6SSGLVPRGSH
T1 sequence (Q04049 1-513): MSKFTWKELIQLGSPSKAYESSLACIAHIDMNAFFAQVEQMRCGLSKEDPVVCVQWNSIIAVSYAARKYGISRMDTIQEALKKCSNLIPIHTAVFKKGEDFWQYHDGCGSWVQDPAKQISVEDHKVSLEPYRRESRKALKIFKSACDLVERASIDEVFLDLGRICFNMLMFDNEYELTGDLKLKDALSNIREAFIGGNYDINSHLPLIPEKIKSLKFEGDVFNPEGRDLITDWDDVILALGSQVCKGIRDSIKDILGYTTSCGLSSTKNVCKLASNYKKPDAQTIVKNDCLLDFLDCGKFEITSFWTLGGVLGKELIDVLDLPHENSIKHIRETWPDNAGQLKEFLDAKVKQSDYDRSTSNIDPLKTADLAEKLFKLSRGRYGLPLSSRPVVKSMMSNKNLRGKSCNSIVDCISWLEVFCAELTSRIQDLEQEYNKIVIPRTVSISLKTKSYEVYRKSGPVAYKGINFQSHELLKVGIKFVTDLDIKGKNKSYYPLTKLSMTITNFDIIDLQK

full-length yPolη = molecular target: T2, full-length yPolη (Saccharomyces cerevisiae, UniProt Q04049); test: as above; format: biochemical; details: 5 mM MgCl2, pH 7.5, 23°C
T2 construct: gene RAD30; full-length, residues 1-632, expressed and purified from yeast
T2 sequence (Q04049 1-632): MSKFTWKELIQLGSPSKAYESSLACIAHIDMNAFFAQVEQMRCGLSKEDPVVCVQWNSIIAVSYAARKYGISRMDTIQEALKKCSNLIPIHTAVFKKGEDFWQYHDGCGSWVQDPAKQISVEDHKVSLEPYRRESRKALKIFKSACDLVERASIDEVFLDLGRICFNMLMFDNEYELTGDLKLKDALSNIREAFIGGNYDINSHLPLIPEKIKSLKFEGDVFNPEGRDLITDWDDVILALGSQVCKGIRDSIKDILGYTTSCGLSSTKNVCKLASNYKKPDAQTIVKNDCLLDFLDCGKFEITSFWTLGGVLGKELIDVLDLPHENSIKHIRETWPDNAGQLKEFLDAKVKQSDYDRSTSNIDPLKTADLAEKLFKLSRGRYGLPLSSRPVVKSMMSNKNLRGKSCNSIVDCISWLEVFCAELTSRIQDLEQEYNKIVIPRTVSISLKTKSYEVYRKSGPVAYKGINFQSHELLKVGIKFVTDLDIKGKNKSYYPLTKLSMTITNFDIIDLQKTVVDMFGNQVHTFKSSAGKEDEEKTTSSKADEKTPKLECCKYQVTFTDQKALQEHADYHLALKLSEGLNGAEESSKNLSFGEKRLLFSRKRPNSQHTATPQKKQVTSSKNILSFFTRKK
Excerpt: pre-steady-state single-turnover nucleotide incorporation, rapid chemical quench on full-length yPolη

[1] = mismatched dNTP opposite template dA (D-1 21/41-mer DNA)
[2] = correct dNTP opposite template dA (D-1 21/41-mer DNA)

Nc1ncnc2c1ncn2[C@H]1C[C@H](O)[C@@H](COP(=O)(O)OP(=O)(O)OP(=O)(O)O)O1 [dATP]
Kd (truncated yPolη; correct dNTP opposite template dT (D-7 21/41-mer DNA)): 17 ± 3 µM
Kd (full-length yPolη; [1]): 156 ± 7 µM

Nc1ccn([C@H]2C[C@H](O)[C@@H](COP(=O)(O)OP(=O)(O)OP(=O)(O)O)O2)c(=O)n1 [dCTP]
Kd (truncated yPolη; correct dNTP opposite template dG (D-6 21/41-mer DNA)): 11.2 ± 0.8 µM
Kd (full-length yPolη; [1]): 70 ± 10 µM

Nc1nc2c(ncn2[C@H]2C[C@H](O)[C@@H](COP(=O)(O)OP(=O)(O)OP(=O)(O)O)O2)c(=O)[nH]1 [dGTP]
Kd (truncated yPolη; correct dNTP opposite template dC (D-8 21/41-mer DNA)): 6.8 ± 0.4 µM
Kd (full-length yPolη; [1]): 170 ± 40 µM

Cc1cn([C@H]2C[C@H](O)[C@@H](COP(=O)(O)OP(=O)(O)OP(=O)(O)O)O2)c(=O)[nH]c1=O [dTTP]
Kd (truncated yPolη; [2]): 15 ± 2 µM
Kd (full-length yPolη; [2]): 40 ± 10 µM
